Source: ChEMBL document CHEMBL1132981 (J Med Chem, 2000)

Assays:
[1] = molecular target: Adenosine receptors; A1 & A2b (Homo sapiens) (UniProt P30542+P29275); experiment: Selectivity ratio of hA1 to hA2B; type: protein assay
[2] = molecular target: Adenosine receptors; A2b & A3 (Homo sapiens) (UniProt P29275+P0DMS8); experiment: Selectivity ratio of hA3 to hA2B; type: protein assay
Adenosine receptor A1 [3] = molecular target: T1, Adenosine receptor A1 (Homo sapiens, UniProt P30542); experiment: biochemical
T1 sequence (P30542 whole entry): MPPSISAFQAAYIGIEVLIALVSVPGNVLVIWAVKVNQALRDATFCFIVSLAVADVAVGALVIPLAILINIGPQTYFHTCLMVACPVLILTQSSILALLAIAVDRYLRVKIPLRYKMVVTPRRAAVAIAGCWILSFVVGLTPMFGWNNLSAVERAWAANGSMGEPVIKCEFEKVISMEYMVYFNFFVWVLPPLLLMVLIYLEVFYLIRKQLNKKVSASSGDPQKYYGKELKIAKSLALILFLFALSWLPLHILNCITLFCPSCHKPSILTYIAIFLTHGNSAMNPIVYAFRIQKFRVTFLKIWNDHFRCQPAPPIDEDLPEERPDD
Description: Antagonist activity against recombinant human adenosine A1 receptor expressed in HEK293 cells in presence of [125I]IABA radioligand.

Adenosine receptor A2a [4] = molecular target: Adenosine receptor A2a (Homo sapiens, UniProt P29274); experiment: biochemical
Chain of Adenosine receptor A2a (Homo sapiens, UniProt P29274) (P29274 whole entry): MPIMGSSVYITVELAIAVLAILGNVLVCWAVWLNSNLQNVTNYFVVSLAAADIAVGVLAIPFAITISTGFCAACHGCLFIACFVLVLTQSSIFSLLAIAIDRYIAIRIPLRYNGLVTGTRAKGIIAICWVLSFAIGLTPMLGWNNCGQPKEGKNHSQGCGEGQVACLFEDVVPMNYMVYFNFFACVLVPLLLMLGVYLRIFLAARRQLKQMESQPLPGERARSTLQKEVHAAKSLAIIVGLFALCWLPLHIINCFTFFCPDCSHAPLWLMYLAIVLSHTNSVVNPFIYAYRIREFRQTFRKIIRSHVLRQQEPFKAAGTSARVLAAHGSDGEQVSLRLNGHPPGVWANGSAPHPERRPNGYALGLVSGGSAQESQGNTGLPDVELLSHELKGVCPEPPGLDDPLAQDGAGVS
Description: Antagonist activity against recombinant human adenosine A2A receptor expressed in HEK293 cells in presence of [125I]iodo-ZM-241385 radioligand.

Adenosine receptor A3 [5] = molecular target: T2, Adenosine receptor A3 (Homo sapiens, UniProt P0DMS8); experiment: biochemical
T2 sequence (P0DMS8 whole entry): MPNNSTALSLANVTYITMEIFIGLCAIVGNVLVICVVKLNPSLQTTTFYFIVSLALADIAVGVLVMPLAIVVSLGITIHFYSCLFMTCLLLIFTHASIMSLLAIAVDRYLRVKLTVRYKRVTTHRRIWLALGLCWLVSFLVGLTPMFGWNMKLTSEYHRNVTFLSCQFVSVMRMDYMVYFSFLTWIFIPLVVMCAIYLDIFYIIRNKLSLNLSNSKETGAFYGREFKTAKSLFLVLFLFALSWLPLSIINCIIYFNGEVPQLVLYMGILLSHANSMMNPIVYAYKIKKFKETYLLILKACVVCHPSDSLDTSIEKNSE
Description: Antagonist activity against human adenosine A3 receptor expressed in HEK cells in presence of [125]IAB-MECA or [125I]IABA radioligand.

Adenosine receptor A2a [6] = molecular target: Adenosine receptor A2a (Rattus norvegicus, UniProt P30543); experiment: biochemical
Chain of Adenosine receptor A2a (Rattus norvegicus, UniProt P30543) (P30543 whole entry): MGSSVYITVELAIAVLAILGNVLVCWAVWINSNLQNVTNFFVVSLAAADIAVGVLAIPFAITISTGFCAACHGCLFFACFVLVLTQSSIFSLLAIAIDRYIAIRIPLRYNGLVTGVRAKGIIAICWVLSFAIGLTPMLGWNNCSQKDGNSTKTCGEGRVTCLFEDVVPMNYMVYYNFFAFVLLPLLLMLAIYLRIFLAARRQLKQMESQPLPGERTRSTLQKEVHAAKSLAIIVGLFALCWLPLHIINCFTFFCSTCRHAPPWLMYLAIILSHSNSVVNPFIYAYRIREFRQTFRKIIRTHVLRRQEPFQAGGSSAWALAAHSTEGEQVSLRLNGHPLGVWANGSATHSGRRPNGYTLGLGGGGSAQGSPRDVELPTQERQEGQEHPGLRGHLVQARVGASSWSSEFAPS
Description: Antagonist activity against adenosine A2A receptor in rat striatal membrane in presence of [3H]CGS-21680 radioligand.

[7] = molecular target: T3, Adenosine receptor A3 (Homo sapiens) (UniProt P0DMS8); type: functional, cell-based; conditions: HEK293, 10e-6 M
T3 sequence (whole entry): T2 sequence (P0DMS8 whole entry)

Adenosine receptor A3 [8] = molecular target: T4, Adenosine receptor A3 (Rattus norvegicus, UniProt P28647); type: functional
T4 sequence (P28647 whole entry): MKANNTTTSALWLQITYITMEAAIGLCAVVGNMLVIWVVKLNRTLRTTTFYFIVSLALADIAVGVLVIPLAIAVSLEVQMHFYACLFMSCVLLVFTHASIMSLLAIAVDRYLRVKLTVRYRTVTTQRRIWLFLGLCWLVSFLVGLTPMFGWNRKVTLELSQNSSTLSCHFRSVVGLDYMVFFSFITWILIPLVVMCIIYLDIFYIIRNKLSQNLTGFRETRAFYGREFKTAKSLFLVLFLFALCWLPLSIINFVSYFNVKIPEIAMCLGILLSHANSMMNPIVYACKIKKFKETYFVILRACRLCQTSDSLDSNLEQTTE

[9] = molecular target: Adenosine receptor A2a (Rattus norvegicus) (UniProt P30543); experiment: Antagonist activity against adenosine A2A receptor in rat striatal membrane using [3H]CGS-21680; type: functional, cell membranes; conditions: Striatum, concentration not given here
Chain of Adenosine receptor A2a (Rattus norvegicus) (P30543 whole entry): as the sequence (P30543 whole entry) above

Adenosine receptor A1 [10] = molecular target: T5, Adenosine receptor A1 (Rattus norvegicus, UniProt P25099); experiment: biochemical
T5 sequence (P25099 whole entry): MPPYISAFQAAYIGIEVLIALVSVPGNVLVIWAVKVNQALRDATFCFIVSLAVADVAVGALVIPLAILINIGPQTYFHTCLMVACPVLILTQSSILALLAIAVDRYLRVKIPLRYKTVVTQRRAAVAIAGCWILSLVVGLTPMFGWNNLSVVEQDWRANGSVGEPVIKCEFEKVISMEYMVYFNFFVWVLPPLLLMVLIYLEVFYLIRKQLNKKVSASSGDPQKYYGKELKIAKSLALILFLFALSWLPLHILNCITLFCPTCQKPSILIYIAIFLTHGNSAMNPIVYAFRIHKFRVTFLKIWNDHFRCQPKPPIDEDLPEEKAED
Description: Antagonist activity against adenosine A1 receptor in rat brain membrane in presence of [3H]R-PIA radioligand.

[11] = molecular target: T6, Adenosine receptor A2b (Homo sapiens) (UniProt P29275); type: functional, cell-based; conditions: HEK293, 10e-5 M
T6 sequence (whole entry): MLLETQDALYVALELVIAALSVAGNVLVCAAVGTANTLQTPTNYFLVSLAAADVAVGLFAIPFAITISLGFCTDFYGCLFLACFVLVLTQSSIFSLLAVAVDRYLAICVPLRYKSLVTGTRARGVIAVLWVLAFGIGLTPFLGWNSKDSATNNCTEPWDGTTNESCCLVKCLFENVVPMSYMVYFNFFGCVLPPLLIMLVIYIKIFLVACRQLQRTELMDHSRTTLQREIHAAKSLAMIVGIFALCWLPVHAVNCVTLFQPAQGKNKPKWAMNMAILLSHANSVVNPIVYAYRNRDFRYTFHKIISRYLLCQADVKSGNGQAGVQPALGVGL

[12] = molecular target: T7, Adenosine receptor A1 (Rattus norvegicus) (UniProt P25099); experiment: Antagonist activity against adenosine A1 receptor in rat brain membrane using [3H]R-PIA at 10e-5 M; type: functional, cell membranes
T7 sequence (whole entry): T5 sequence (P25099 whole entry)

[13] = molecular target: Adenosine receptor A2a (Rattus norvegicus) (UniProt P30543); experiment: Antagonist activity against adenosine A2A receptor in rat striatal membrane using [3H]CGS-21680 at 10e-5 M; type: functional, cell membranes; conditions: Striatum
Adenosine receptor A2b = molecular target: T8, Adenosine receptor A2b (Homo sapiens, UniProt P29275)
T8 sequence (P29275 whole entry): T6 sequence (whole entry)
Description: Antagonist activity against human A2B adenosine receptor expressed in HEK293 cells uisng [3H]ZM-241385 or [125I]-IABOPX

[14] = molecular target: T7, Adenosine receptor A1 (Rattus norvegicus); experiment: Antagonist activity against A1 adenosine receptor in rat brain membrane using [3H]-R-PIA at 10e-5 M; type: functional, cell membranes

Compound | Ratio [1] | Ratio [2] | other results
CCCn1c(=O)c2nc(-c3ccc(OCC(=O)N(Cc4ccccc4)Cc4ccccc4)cc3)[nH]c2n(CCC)c1=O | 70 | 29 | –
CCCn1c(=O)c2[nH]c(-c3ccc(OCC(=O)Nc4ccc(C(=O)O)cc4)cc3)nc2n(CCC)c1=O | – | – | Ki (Adenosine receptor A1 [3]): 0.161 µM; Ki (Adenosine receptor A2a [4]): 0.039 µM; Ki (Adenosine receptor A3 [5]): > 5 µM
CCCn1c(=O)c2nc(-c3ccc(OCC(=O)Nc4ccccc4C(C)=O)cc3)[nH]c2n(CCC)c1=O | 120 | 23 | –
O=C(O)/C=C/c1ccc(-c2nc3c(=O)n(CC4CCCCC4)c(=O)n(CC4CCCCC4)c3[nH]2)cc1 | 25 | 4.6 | Ki (Adenosine receptor A2a [6]): < 0.01 µM
CCCn1c(=O)c2nc(-c3ccc(OCC(=O)NN4C(=O)C(C)=C(C)C4=O)cc3)[nH]c2n(CCC)c1=O | 110 | 25 | –
CCn1c(=O)c2nc(-c3ccc(OCC(=O)Nc4ccc(C)cc4)cc3)[nH]c2n(CC)c1=O | – | – | Displacement [7]: < 10%
CCCCn1c(=O)c2[nH]c(-c3ccc(OCC(=O)O)cc3)nc2n(CCCC)c1=O | – | – | Ki (Adenosine receptor A3 [8]): 27.5 µM
O=C(O)COc1ccc(-c2nc3c(=O)n(Cc4ccccc4)c(=O)n(Cc4ccccc4)c3[nH]2)cc1 | – | – | inhibition [9]: 25%
CCCn1c(=O)c2nc(-c3ccc(OCC(=O)Nc4ccc([N+](=O)[O-])cc4)cc3)[nH]c2n(CCC)c1=O | 38 | 91 | –
CCCn1c(=O)c2nc(-c3ccc(OCC(=O)Nc4ccccc4)cc3)[nH]c2n(CCC)c1=O | 27 | 93 | –
CCCn1c(=O)c2nc(-c3ccc(OCC(=O)NC(c4ccccc4)c4ccccc4)cc3)[nH]c2n(CCC)c1=O | – | – | inhibition [9]: 20%
CCCn1c(=O)c2nc(-c3ccc(OCC(=O)Nc4cccc(C(C)=O)c4)cc3)[nH]c2n(CCC)c1=O | 48 | 72 | –
CCCn1c(=O)c2[nH]c(-c3ccc(OCC(=O)Nc4ccc(F)cc4)cc3)nc2n(CCC)c1=O | – | – | Ki (Adenosine receptor A1 [10]): 0.272 µM
CCCCn1c(=O)c2nc(-c3ccc(OCC(=O)O)cc3)[nH]c2n(CCCC)c1=O | 3.1 | 1.9 | –
CCCn1c(=O)c2[nH]c(-c3ccc(OCC(=O)Nc4ccc(C(N)=O)cc4)cc3)nc2n(CCC)c1=O | – | – | Ki (Adenosine receptor A1 [3]): 0.161 µM; Ki (Adenosine receptor A2a [4]): 0.039 µM
CC(=O)c1ccccc1NC(=O)COc1ccc(-c2nc3c(=O)n(Cc4ccccc4)c(=O)n(Cc4ccccc4)c3[nH]2)cc1 | – | – | Displacement [11]: < 10%; Displacement [12]: < 10%; Displacement [13]: < 10%
CC(=O)c1ccccc1NC(=O)/C=C/c1ccc(-c2nc3c(=O)n(Cc4ccccc4)c(=O)n(Cc4ccccc4)c3[nH]2)cc1 | – | – | Displacement [11]: < 10%; Displacement [13]: < 10%
CCn1c(=O)c2[nH]c(-c3ccc(OCC(=O)Nc4ccc(CC(=O)NCCN)cc4)cc3)nc2n(CC)c1=O | – | – | Ki (Adenosine receptor A2b): 0.0152 µM; Ki (Adenosine receptor A2a [6]): 1.37 µM; Ki (Adenosine receptor A1 [10]): 0.065 µM
CCCn1c(=O)c2nc(-c3ccc(/C=C/C(=O)O)cc3)[nH]c2n(CCC)c1=O | – | – | Ki (Adenosine receptor A2b): 0.06 µM; Ki (Adenosine receptor A3 [5]): 0.03 µM
CCCn1c(=O)c2nc(-c3ccc(OCC(=O)Nc4ccc(C(F)(F)F)cc4)cc3)[nH]c2n(CCC)c1=O | 29 | 100 | –
CC(=O)c1ccccc1NC(=O)/C=C/c1ccc(-c2nc3c(=O)n(CC4CCCCC4)c(=O)n(CC4CCCCC4)c3[nH]2)cc1 | – | – | Displacement [11]: < 10%; Displacement [14]: < 10%; Displacement [13]: < 10%
C=CCn1c(=O)c2nc(-c3ccc(OCC(=O)O)cc3)[nH]c2n(CC=C)c1=O | 12 | 5.8 | –

Continued, in another order:

Ratio [1] | Ratio [2] | Compound | other results
140 | 600 | CCCn1c(=O)c2nc(-c3ccc(OCC(=O)Nc4ccc(I)cc4)cc3)[nH]c2n(CCC)c1=O | –
110 | 170 | CCCn1c(=O)c2nc(-c3ccc(OCC(=O)Nc4ccc(C(C)=O)cc4)cc3)[nH]c2n(CCC)c1=O | –
31 | 980 | CCCn1c(=O)c2nc(-c3ccc(OCC(=O)Nc4ccc(Br)cc4)cc3)[nH]c2n(CCC)c1=O | –
20 | 760 | CCCn1c(=O)c2nc(-c3ccc(OCC(=O)Nc4ccc(Cl)cc4)cc3)[nH]c2n(CCC)c1=O | –
8.1 | 176 | CCCn1c(=O)c2nc(-c3ccc(OCC(=O)Nc4ccc(F)cc4)cc3)[nH]c2n(CCC)c1=O | –
57 | 92 | CCCn1c(=O)c2nc(-c3ccc(OCC(=O)Nc4ccc(C(=O)OC)cc4)cc3)[nH]c2n(CCC)c1=O | –
10 | > 300 | CCCn1c(=O)c2nc(-c3ccc(OCC(=O)Nc4ccc(C(=O)O)cc4)cc3)[nH]c2n(CCC)c1=O | –
